Counter-ions that a name gives are not always drawn. Like-named read-outs stand apart in the source and are kept apart here.
System: ring stage parasites
Experiment: Parasite growth potency assay, 72 hours, LDH readout
Format: cell-based
Conditions: parasite growth measured by LDH assay after 72 hours at 37° C., 0.7% rings, 2% haematocrit, read-out: EC50
Outline: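 Parasite growth was quantified by LDH assay after a −80 °C freeze-thaw. Before that, compound was incubated for 72 h at 37 °C under humidified gas with ring-stage cultures adjusted to 0.7% parasitemia and 2% haematocrit in serum- and albumax-supplemented RPMI-Hepes.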

Compound | EC50 (72 h) [nM] | further results
CCC1(CC)CC(=O)N([C@H](CCC#N)c2cccc(C(=O)N[C@H]3CC(C)(C)Oc4ccccc43)c2)C(=N)N1 [Example 107, [1-[3-cyano-1-[3-[[(4S)-2,2-dimethylchroman-4-yl]carbamoyl]phenyl]propyl]-4,4-diethyl-6-oxo-hexahydropyrimidin-2-ylidene]ammonium; 2,2,2-trifluoroacetate] | 0.2 | 
COCC[C@H](c1cc(F)cc(C(=O)N[C@@H]2c3ccccc3OC(C)(C)[C@H]2O)c1)N1C(=N)NC(C)(C)CC1=O [Example 174, [1-[1-[3-fluoro-5-[[(3S,4R)-3-hydroxy-2,2-dimethyl-chroman-4-yl]carbamoyl]phenyl]-3-methoxy-propyl]-4,4-dimethyl-6-oxo-hexahydropyrimidin-2-ylidene]ammonium; 2,2,2-trifluoroacetate] | 0.9 | 
CCC1(CC)CC(=O)N([C@H](c2cccc(C(=O)N[C@H]3CCOc4ccccc43)c2)c2cccc(S(C)(=O)=O)c2)C(=N)N1 [Example 123B, [1-[[3-[[(4S)-chroman-4-yl]carbamoyl]phenyl]-(3-methylsulfonylphenyl)methyl]-4,4-diethyl-6-oxo-hexahydropyrimidin-2-ylidene]ammonium; 2,2,2-trifluoroacetate] | 9.3 | 
N=C1N[C@@](CC2CC2)(c2ccccc2)CC(=O)N1[C@H](c1cccnc1)c1cccc(C(=O)N[C@H]2CCOc3ccccc32)c1 [Example 8, [(4R)-1-[[3-[[(4S)-chroman-4-yl]carbamoyl]phenyl]-pyridin-1-ium-3-yl-methyl]-4-(cyclopropylmethyl)-6-oxo-4-phenyl-hexahydropyrimidin-2-ylidene]ammonium; 2,2,2-trifluoroacetate] | 4.2 | 
COCC[C@H](c1cc(F)cc(C(=O)N[C@@H]2c3ccccc3C[C@@]2(C)O)c1)N1C(=N)NC(C)(C)CC1=O [Example 175A, 3-fluoro-N-[(1R,2R)-2-hydroxy-2-methyl-indan-1-yl]-5-[1-(2-imino-4,4-dimethyl-6-oxo-hexahydropyrimidin-1-yl)-3-methoxy-propyl]benzamide] |  | EC50: 37.1 nM
CCC1(CC)CC(=O)N([C@H](CCOC)c2cc(F)cc(C(=O)NC3c4ccccc4OC3(C)COC)c2)C(=N)N1 (single isomer, unassigned) [Example 176A, trifluoroacetate] |  | EC50 (trifluoroacetate): 21.8 nM
CCC[C@H](c1cccc(C(=O)N[C@@H]2c3ccccc3CC2(C)O)c1)N1C(=N)NC(CC)(CC)CC1=O (stereo partly drawn) [Example 122A, 3-[(1R)-1-(4,4-diethyl-2-imino-6-oxo-hexahydropyrimidin-1-yl)butyl]-N-(2-hydroxy-2-methyl-indan-1-yl)benzamide] | 1.2 | 
CCC[C@H](c1cccc(C(=O)N[C@@H]2c3ccccc3OC[C@]2(C)O)c1)N1C(=N)NC(CC)(CC)CC1=O [Example 163B, 3-[(1R)-1-(4,4-diethyl-2-imino-6-oxo-hexahydropyrimidin-1-yl)butyl]-N-[(3R,4R)-3-hydroxy-3-methyl-chroman-4-yl]benzamide] |  | EC50: 0.4 nM
CCC[C@H](c1cccc(C(=O)N[C@H]2c3ccccc3CC2(C)O)c1)N1C(=N)NC(CC)(CC)CC1=O (single isomer, unassigned) [Example 122B] |  | EC50: 17.7 nM
CCC1(CC)CC(=O)N([C@H](COCCOC)c2cccc(C(=O)N[C@H]3CC(C)(C)Oc4ccccc43)c2)C(=N)N1 [Example 112A, [1-[1-[3-[[(4S)-2,2-dimethylchroman-4-6-oxo-hexahydropyrimidin-2-ylidene]ammonium; 2,2,2-trifluoroacetate] | 0.3 | 
CCC1(CC)CC(=O)N([C@H](CCOC)c2cccc(C(=O)N[C@@H]3c4ccccc4OC3(C)CO)c2)C(=N)N1 (single isomer, unassigned) [Example 180B, trifluoroacetate] |  | EC50 (trifluoroacetate): 15.3 nM
CCC1(CC)CC(=O)N(Cc2cccc(C(=O)N[C@H]3CCOc4ccccc43)c2)C(=N)N1 [Example 11, [1-[[3-[[(4S)-chroman-4-yl]carbamoyl]phenyl]methyl]-4,4-diethyl-6-oxo-hexahydropyrimidin-2-ylidene]ammonium; 2,2,2-trifluoroacetate] | 1.5 | 
CCC1(CC)CC(=O)N([C@H](CCOC)c2cccc(C(=O)NC3c4ccccc4C(F)(F)C3O)c2)C(=N)N1 (stereo partly drawn) [Example 189A, [1-[(1R)-1-[3-[(3,3-difluoro-2-hydroxy-indan-1-yl)carbamoyl]phenyl]-3-methoxy-propyl]-4,4-diethyl-6-oxo-hexahydropyrimidin-2-ylidene]ammonium; 2,2,2-trifluoroacetate] |  | EC50 (trifluoroacetate): 0.8 nM
CCC1(CC)CC(=O)N([C@H](CCOC)c2cccc(C(=O)N[C@@H]3c4cc(F)ccc4C[C@H]3O)c2)C(=N)N1 [Example 170, [4,4-diethyl-1-[(1R)-1-[3-[(6-fluoro-2-hydroxy-indan-1-yl)carbamoyl]phenyl]-3-methoxy-propyl]-6-oxo-hexahydropyrimidin-2-ylidene]ammonium; 2,2,2-trifluoroacetate] | 0.7 | 
CCC[C@H](c1cccc(C(=O)N[C@@H]2c3ccccc3C[C@H]2O)c1)N1C(=N)N[C@](CC2CC2)(c2ccccc2)CC1=O [Example 69, [(4S)-4-(cyclopropylmethyl)-1-[(1R)-1-[3-[[(1R,2R)-2-hydroxyindan-1-yl]carbamoyl]phenyl]butyl]-6-oxo-4-phenyl-hexahydropyrimidin-2-ylidene]ammonium; 2,2,2-trifluoroacetate] | 29.3 | 
CCC1(CC)CC(=O)N(Cc2cccc(C(=O)N[C@@H]3c4ccccc4OC(C)(C)[C@H]3O)c2)C(=N)N1 [Example 1, 3-((4,4-diethyl-2-imino-6-oxotetrahydropyrimidin-1(2H)-yl)methyl)-N-((3S,4R)-3-hydroxy-2,2-dimethylchroman-4-yl)benzamide] | 0.8 | 
CCC1(CC)CC(=O)N(Cc2cccc(C(=O)N[C@@H]3c4ccccc4OCC3O)c2)C(=N)N1 (single isomer, unassigned) [Example 126A, 3-[(4,4-diethyl-2-imino-6-oxo-hexahydropyrimidin-1-yl)methyl]-N-(3-hydroxychroman-4-yl)benzamide] | 19.4 | 
C#CCC[C@@H](c1cccc(C(=O)N[C@H]2CC(C)(C)Oc3ccccc32)c1)N1C(=N)N[C@](C)(C(C)C)CC1=O [Example 108B, [(4S)-1-[1-[3-[[(4S)-2,2-dimethylchroman-4-yl]carbamoyl]phenyl]pent-4-ynyl]-4-isopropyl-4-methyl-6-oxo-hexahydropyrimidin-2-ylidene]ammonium; 2,2,2-trifluoroacetate] | 23.6 | 
CCC1(CC)CC(=O)N([C@H](CCOC)c2cccc(C(=O)NC3c4ccccc4OC(C(F)(F)F)C3O)c2)C(=N)N1 (stereo partly drawn) [Example 151, [4,4-diethyl-1-[(1R)-1-[3-[[3-hydroxy-2-(trifluoromethyl)chroman-4-yl]carbamoyl]phenyl]-3-methoxy-propyl]-6-oxo-hexahydropyrimidin-2-ylidene]ammonium; 2,2,2-trifluoroacetate] | 1.1 | 
CCC1(CC)CC(=O)N([C@H](COCCOC)c2cccc(C(=O)NC3c4ccccc4CC3(C)O)c2)C(=N)N1 (stereo partly drawn) [Example 146A, 3-[(1S)-1-(4,4-diethyl-2-imino-6-oxo-hexahydropyrimidin-1-yl)-2-(2-methoxyethoxy)ethyl]-N-(2-hydroxy-2-methyl-indan-1-yl)benzamide] | 5.3 | 
